Source: ChEMBL document CHEMBL6087474, “Discovery of an Efficacious RET PROTAC Degrader with Enhanced Antiproliferative Activity against Resistant Cancer Cells Harboring RET Solvent-Front Mutations” (J Med Chem, 2025)
Calls of active or inactive are those of the source. The calls are words filed in the database; no cut-off is given here.

Experiments:
[1] = Effect on Shc protein level in mouse BaF3 cells stably expressing wildtype KIF5B-RET assessed as fold change at 300 nM measured after 6 hrs by Western blot analysis; assay type: functional
[2] = Effect on RET protein level in mouse BaF3 cells stably expressing KIF5B-RET-V804M mutant assessed as fold change at 11.1 nM measured after 6 hrs by Western blot analysis (reference value: 1); assay type: functional
[3] = Effect on RET protein level in mouse BaF3 cells stably expressing KIF5B-RET-G810C mutant assessed as fold change at 11.1 nM measured after 6 hrs by Western blot analysis (reference value: 1); assay type: functional
[4] = Induction of apoptosis in mouse BaF3 cells stably expressing wildtype KIF5B-RET fusion protein assessed as early apoptotic cells at 300 nM measured after 48 hrs by Annexin V-FITC/7-AAD staining based flow cytometric analysis (reference value: 9.92 %); assay type: functional
[5] = Induction of apoptosis in mouse BaF3 cells stably expressing KIF5B-RET-G810C mutant assessed as viable cells at 100 nM measured after 48 hrs by Annexin V-FITC/7-AAD staining based flow cytometric analysis (reference value: 86.58 %); assay type: functional; conditions: read-out: Activity
[6] = Induction of apoptosis in mouse BaF3 cells stably expressing wildtype KIF5B-RET fusion protein assessed as late apoptotic cells at 100 nM measured after 48 hrs by Annexin V-FITC/7-AAD staining based flow cytometric analysis (reference value: 1.03 %); assay type: functional
[7] = Induction of apoptosis in mouse BaF3 cells stably expressing wildtype KIF5B-RET fusion protein assessed as viable cells at 100 nM measured after 48 hrs by Annexin V-FITC/7-AAD staining based flow cytometric analysis (reference value: 86.65 %); assay type: functional; conditions: read-out: Activity
[8] = Potency index, ratio of selpercatinib IC50 to test compound IC50 for antiproliferative activity against mouse BaF3 cells stably expressing CCDC6-RET-G810C mutant incubated for 72 hrs by CCK-8 assay; assay type: functional
[9] = Induction of apoptosis in mouse BaF3 cells stably expressing KIF5B-RET-G810C mutant assessed as late apoptotic cells at 900 nM measured after 48 hrs by Annexin V-FITC/7-AAD staining based flow cytometric analysis (reference value: 1.96 %); assay type: functional
[10] = Effect on Shc protein level in mouse BaF3 cells stably expressing wildtype KIF5B-RET assessed as fold change at 33.3 nM measured after 6 hrs by Western blot analysis; assay type: functional
BaF3 [11] = assay: Inhibition of Shc (unknown origin) phosphorylation in mouse BaF3 cells stably expression KIF5B-RET G810R mutant at 333.3 to 3000 nM measured after 6 hrs by Western blot analysis; assay type: cell-based; conditions: Homo sapiens, dose 333.3-3000 nM
[12] = Effect on Shc protein level in mouse BaF3 cells stably expressing KIF5B-RET-G810C mutant assessed as fold change at 33.3 nM measured after 6 hrs by Western blot analysis (reference value: 1); assay type: functional
[13] = Effect on Shc protein level in mouse BaF3 cells stably expressing KIF5B-RET-G810R mutant assessed as fold change at 300 nM measured after 6 hrs by Western blot analysis (reference value: 1); assay type: functional
[14] = Effect on Shc protein level in mouse BaF3 cells stably expressing KIF5B-RET-V804M mutant assessed as fold change at 11.1 nM measured after 6 hrs by Western blot analysis (reference value: 1); assay type: functional
BaF3 [15] = assay: Antiproliferative activity against mouse BaF3 cells stably expressing CCDC6-RET-G810C mutant incubated for 72 hrs by CCK-8 assay; assay type: functional, cell-based; conditions: BaF3, 72 h
[16] = Effect on Shc protein level in mouse BaF3 cells stably expressing KIF5B-RET-G810R mutant assessed as fold change at 100 nM measured after 6 hrs by Western blot analysis (reference value: 1); assay type: functional
BaF3 [17] = assay: PROTAC activity at CRBN/KIF5B-RET (unknown origin) expressed in mouse BaF3 cells assessed as induction of RET degradation by measuring maximal efficacy measured after 6 hrs by Western blot analysis relative to control; assay type: cell-based; conditions: Homo sapiens
[18] = Induction of apoptosis in mouse BaF3 cells stably expressing KIF5B-RET-G810C mutant assessed as necrotic cells at 100 nM measured after 48 hrs by Annexin V-FITC/7-AAD staining based flow cytometric analysis (reference value: 2.89 %); assay type: functional
BaF3 [19] = assay: PROTAC activity at CRBN/KIF5B-RET (unknown origin) expressed in mouse BaF3 cells assessed as induction of RET degradation at 100 nM measured after 6 hrs by Western blot analysis relative to control; assay type: cell-based
[20] = Induction of apoptosis in mouse BaF3 cells stably expressing wildtype KIF5B-RET fusion protein assessed as viable cells at 11.1 nM measured after 48 hrs by Annexin V-FITC/7-AAD staining based flow cytometric analysis (reference value: 86.65 %); assay type: functional; conditions: read-out: Activity
[21] = Induction of apoptosis in mouse BaF3 cells stably expressing KIF5B-RET-G810C mutant assessed as late apoptotic cells at 300 nM measured after 48 hrs by Annexin V-FITC/7-AAD staining based flow cytometric analysis (reference value: 1.96 %); assay type: functional
[22] = Induction of apoptosis in mouse BaF3 cells stably expressing wildtype KIF5B-RET fusion protein assessed as viable cells at 33.3 nM measured after 48 hrs by Annexin V-FITC/7-AAD staining based flow cytometric analysis (reference value: 86.65 %); assay type: functional; conditions: read-out: Activity
[23] = Induction of apoptosis in mouse BaF3 cells stably expressing KIF5B-RET-G810C mutant assessed as necrotic cells at 33.3 nM measured after 48 hrs by Annexin V-FITC/7-AAD staining based flow cytometric analysis (reference value: 2.89 %); assay type: functional
[24] = Effect on Shc protein level in mouse BaF3 cells stably expressing KIF5B-RET-G810C mutant assessed as fold change at 100 nM measured after 6 hrs by Western blot analysis (reference value: 1); assay type: functional
[25] = Effect on RET protein level in mouse BaF3 cells stably expressing KIF5B-RET-V804M mutant assessed as fold change at 100 nM measured after 6 hrs by Western blot analysis (reference value: 1); assay type: functional
[26] = Effect on Shc protein level in mouse BaF3 cells stably expressing KIF5B-RET-V804M mutant assessed as fold change at 100 nM measured after 6 hrs by Western blot analysis (reference value: 1); assay type: functional
[27] = Induction of apoptosis in mouse BaF3 cells stably expressing wildtype KIF5B-RET fusion protein assessed as late apoptotic cells at 33.3 nM measured after 48 hrs by Annexin V-FITC/7-AAD staining based flow cytometric analysis (reference value: 1.03 %); assay type: functional
[28] = Induction of apoptosis in mouse BaF3 cells stably expressing KIF5B-RET-G810C mutant assessed as early apoptotic cells at 300 nM measured after 48 hrs by Annexin V-FITC/7-AAD staining based flow cytometric analysis (reference value: 8.57 %); assay type: functional
[29] = Effect on RET protein level in mouse BaF3 cells stably expressing wildtype KIF5B-RET assessed as fold change at 33.3 nM measured after 6 hrs by Western blot analysis (reference value: 1); assay type: functional

COc1ccc(CN2C3CC2CN(c2ccc(-c4cc(-c5cnn(C6CCN(CCCCCC#Cc7cccc8c7CN(C7CCC(=O)NC7=O)C8=O)CC6)c5)cn5ncc(C#N)c45)cn2)C3)cn1 (centres undefined)
fold change (FC) [1]: 1
fold change (FC) [2]: 0.7
fold change (FC) [3]: 0.7
Activity [4]: 48.33%
viability at 0.1 µM [5]: 75.4%
Activity [6]: 0.99%
viability at 0.1 µM [7]: 64.9%
Ratio IC50 [8]: ~8.8
Activity [9]: 3.71%
fold change (FC) [10]: 1
inhibition (BaF3 [11]): Active
fold change (FC) [12]: 1
fold change (FC) [13]: 0.9
fold change (FC) [14]: 1
IC50 (BaF3 [15]): 40 nM
fold change (FC) [16]: 0.9
Emax (BaF3 [17]): 83%
Activity [18]: 2.09%
Activity (BaF3 [19]): 73%
viability at 0.0111 µM [20]: 83.8%
Activity [21]: 2.91%
viability at 0.0333 µM [22]: 74.2%
Activity [23]: 2.77%
fold change (FC) [24]: 1
fold change (FC) [25]: 0.1
fold change (FC) [26]: 0.9
Activity [27]: 3.02%
Activity [28]: 31.81%
fold change (FC) [29]: 0.3
